From US6525001B1, “Substituted pyrimidine and pyridine herbicides” (Mid-American Commercialization Corporation, priority 1997, dated 2003)

Columns and labels:
Type in all cases: in vivo
[1] = system: redroot pigweed (Amaranthus retroflexus); test: Test C; design: key: 0 was no effect; 100 was complete control; conditions: PREEMERGENCE
[2] = system: tall mallow (Malva sylvestris); test: Test E pre-/postemergence/post directed; design: key: 0 is no effect; 100 is complete control; conditions: PREEMERGENCE
Procedure, shortened: (§1)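 Greenhouse pots; compound in non-phytotoxic solvent with surfactant, sprayed preemergence within one day of planting, postemergence at two to four leaf stage (three to twenty cm), or post directed to plant base and soil. Visual injury rated 13 to 21 days after application, 0 (none) to 100 (complete control).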

[3] = system: dallisgrass (Paspalum dilatatum); test: Test E pre-/postemergence/post directed; design: key: 0 is no effect; 100 is complete control
Procedure, shortened: as §1

[4] = system: guineagrass (Panicum maximum); test: Test E pre-/postemergence/post directed; design: key: 0 is no effect; 100 is complete control
Procedure, shortened: as §1

[5] = system: common purslane (Portulaca oleracea); test: Test E pre-/postemergence/post directed; design: key: 0 is no effect; 100 is complete control
Procedure, shortened: as §1

[6] = system: johnsongrass (Sorghum halepense); test: Test C; conditions: PREEMERGENCE
[7] = system: broadleaf signalgrass (Brachiaria decumbens); test: Test B pre-/postemergence; design: key: 0 is no effect; 10 is complete control
Procedure, shortened: (§2)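 Response scores run from 0, meaning no effect, to 10, meaning complete control, assigned by eye relative to controls twelve to sixteen days after spraying. Treatment was both preemergence on planted seed and postemergence on plants at the 1- to 4-leaf stage.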

[8] = system: pigweed (Amaranthus retroflexus); test: Test B pre-/postemergence; design: key: 0 is no effect; 10 is complete control
Procedure, shortened: as §2

[9] = system: blackgrass (Alopecurus myosuroides); test: Test B pre-/postemergence; design: key: 0 is no effect; 10 is complete control
Procedure, shortened: as §2

[10] = system: cocklebur (Xanthium strumarium); test: Test B pre-/postemergence; design: key: 0 is no effect; 10 is complete control
Procedure, shortened: as §2

[11] = system: momingglory (Ipomoea hederacea); test: Test B pre-/postemergence; design: key: 0 is no effect; 10 is complete control
Procedure, shortened: as §2

[12] = system: arrowleaf sida (Sida rhombifolia); test: Test C; design: key: 0 was no effect; 100 was complete control; conditions: PREEMERGENCE
[13] = Rate 250 g/ha, Postemergence (so in the source)

Cc1cnc(-n2ccc(C(F)(F)F)n2)nc1Cc1cccc(OC(F)(F)F)c1 [Compound 42] was tested, and the “Plant response rating, Redroot pigweed” value ([1]; Rate 35 g/ha) was 100, the “Plant response rating, Redroot pigweed” value ([1]; Rate 70 g/ha) was 100 and the “Plant response rating, Redroot pigweed” value ([1]; Rate 140 g/ha) was 100. For the same compound, the “Plant response rating, Tall Mallow” value ([2]; Rate 32 g/ha) was 98, the “Plant response rating, Tall Mallow” value ([2]; Rate 64 g/ha) was 98 and the “Plant response rating, Tall Mallow” value ([2]; Rate 125 g/ha) was 98. For the same compound, the “Plant response rating, Tall Mallow” value ([2]; Rate 250 g/ha) was 100, the “Plant response rating, Dallisgrass” value ([3]; PREEMERGENCE, Rate 32 g/ha) was 70 and the “Plant response rating, Dallisgrass” value ([3]; PREEMERGENCE, Rate 64 g/ha) was 95. The “Plant response rating, Dallisgrass” value ([3]; PREEMERGENCE, Rate 125 g/ha) was 100, the “Plant response rating, Dallisgrass” value ([3]; PREEMERGENCE, Rate 250 g/ha) was 100 and the “Plant response rating, Guineagrass” value ([4]; PREEMERGENCE, Rate 32 g/ha) was 95. The “Plant response rating, Guineagrass” value ([4]; PREEMERGENCE, Rate 64 g/ha) was 95, the “Plant response rating, Guineagrass” value ([4]; PREEMERGENCE, Rate 125 g/ha) was 100 and the “Plant response rating, Guineagrass” value ([4]; PREEMERGENCE, Rate 250 g/ha) was 100. For the same compound, the “Plant response rating, Com. purslane” value ([5]; PREEMERGENCE, Rate 32 g/ha) was 100, the “Plant response rating, Com. purslane” value ([5]; PREEMERGENCE, Rate 64 g/ha) was 100 and the “Plant response rating, Com. purslane” value ([5]; PREEMERGENCE, Rate 125 g/ha) was 100. The “Plant response rating, Com. purslane” value ([5]; PREEMERGENCE, Rate 250 g/ha) was 100, the “Plant response rating, Johnsongrass” value ([6]; Rate 35 g/ha) was 70 and the “Plant response rating, Johnsongrass” value ([6]; Rate 70 g/ha) was 70. For the same compound, the “Plant response rating, Johnsongrass” value ([6]; Rate 140 g/ha) was 85, the “Plant response rating, B. signalgrass” value ([7]; Rate 62 g/ha, Postemergence) was 6 and the “B. signalgrass plant response rating” value ([7]; Rate 62 g/ha, Preemergence) was 9. For the same compound, the “Plant response rating, B. signalgrass” value ([7]; Rate 125 g/ha, Postemergence) was 7, the “B. signalgrass plant response rating” value ([7]; Rate 125 g/ha, Preemergence) was 9 and the “Plant response rating, B. signalgrass” value ([7]; Rate 250 g/ha, Postemergence) was 7. The “Plant response rating, B. signalgrass” value ([7]; Rate 250 g/ha, Postemergence as printed in head r139 (second section for compounds 26-50)) was 10, the “Plant response rating, Redroot pigweed” value ([8]; Rate 62 g/ha, Postemergence) was 9 and the “Redroot pigweed plant response rating” value ([8]; Rate 62 g/ha, Preemergence) was 9. The “Redroot pigweed plant response rating” value ([8]; Rate 125 g/ha, Postemergence) was 9, the “Redroot pigweed plant response rating” value ([8]; Rate 125 g/ha, Preemergence) was 10 and the “Plant response rating, Redroot pigweed” value ([8]; Rate 250 g/ha, Postemergence) was 9. For the same compound, the “Plant response rating, Redroot pigweed” value [8, 13] was 10, the “Plant response rating, Blackgrass” value ([9]; Rate 62 g/ha, Postemergence) was 6 and the “Blackgrass plant response rating” value ([9]; Rate 62 g/ha, Preemergence) was 6. For the same compound, the “Plant response rating, Blackgrass” value ([9]; Rate 125 g/ha, Postemergence) was 7, the “Blackgrass plant response rating” value ([9]; Rate 125 g/ha, Preemergence) was 10 and the “Plant response rating, Blackgrass” value ([9]; Rate 250 g/ha, Postemergence) was 7. For the same compound, the “Plant response rating, Blackgrass” value [9, 13] was 10, the “Plant response rating, Cocklebur” value ([10]; Rate 62 g/ha, Postemergence) was 9 and the “Cocklebur plant response rating” value ([10]; Rate 62 g/ha, Preemergence) was 1. The “Plant response rating, Cocklebur” value ([10]; Rate 125 g/ha, Postemergence) was 9, the “Cocklebur plant response rating” value ([10]; Rate 125 g/ha, Preemergence) was 3 and the “Plant response rating, Cocklebur” value ([10]; Rate 250 g/ha, Postemergence) was 9. The “Plant response rating, Cocklebur” value [10, 13] was 8, the “Plant response rating, Morningglory” value ([11]; Rate 62 g/ha, Postemergence) was 8 and the “Morningglory plant response rating” value ([11]; Rate 62 g/ha, Preemergence) was 9. The “Morningglory plant response rating” value ([11]; Rate 125 g/ha, Postemergence) was 9, the “Morningglory plant response rating” value ([11]; Rate 125 g/ha, Preemergence) was 10 and the “Plant response rating, Morningglory” value ([11]; Rate 250 g/ha, Postemergence) was 9. The “Plant response rating, Morningglory” value [11, 13] was 10, the “Plant response rating, Arrowleaf sida” value ([12]; Rate 35 g/ha) was 95 and the “Plant response rating, Arrowleaf sida” value ([12]; Rate 70 g/ha) was 95. For the same compound, the “Plant response rating, Arrowleaf sida” value ([12]; Rate 140 g/ha) was 100.
In the case of Cc1cnc(-n2ccc(C(F)(F)F)n2)nc1Cn1ccc(C(F)(F)F)n1 [Compound 52], the “Plant response rating, Redroot pigweed” value ([1]; Rate 35 g/ha) was 100, the “Plant response rating, Redroot pigweed” value ([1]; Rate 70 g/ha) was 100 and the “Plant response rating, Redroot pigweed” value ([1]; Rate 140 g/ha) was 100. For the same compound, the “Plant response rating, Tall Mallow” value ([2]; Rate 32 g/ha) was 60, the “Plant response rating, Tall Mallow” value ([2]; Rate 64 g/ha) was 98 and the “Plant response rating, Tall Mallow” value ([2]; Rate 125 g/ha) was 100. The “Plant response rating, Dallisgrass” value ([3]; POSTEMERGENCE, Rate 125 g/ha) was 5, the “Plant response rating, Dallisgrass” value ([3]; POSTEMERGENCE, Rate 250 g/ha) was 75 and the “Plant response rating, Dallisgrass” value ([3]; PREEMERGENCE, Rate 32 g/ha) was 35. For the same compound, the “Plant response rating, Dallisgrass” value ([3]; PREEMERGENCE, Rate 64 g/ha) was 80, the “Plant response rating, Dallisgrass” value ([3]; PREEMERGENCE, Rate 125 g/ha) was 90 and the “Plant response rating, Guineagrass” value ([4]; POSTEMERGENCE, Rate 125 g/ha) was 80. The “Plant response rating, Guineagrass” value ([4]; POSTEMERGENCE, Rate 250 g/ha) was 85, the “Plant response rating, Guineagrass” value ([4]; PREEMERGENCE, Rate 32 g/ha) was 60 and the “Plant response rating, Guineagrass” value ([4]; PREEMERGENCE, Rate 64 g/ha) was 80. The “Plant response rating, Guineagrass” value ([4]; PREEMERGENCE, Rate 125 g/ha) was 100, the “Plant response rating, Com. purslane” value ([5]; POSTEMERGENCE, Rate 125 g/ha) was 50 and the “Plant response rating, Com. purslane” value ([5]; POSTEMERGENCE, Rate 250 g/ha) was 75. For the same compound, the “Plant response rating, Com. purslane” value ([5]; PREEMERGENCE, Rate 32 g/ha) was 100, the “Plant response rating, Com. purslane” value ([5]; PREEMERGENCE, Rate 64 g/ha) was 100 and the “Plant response rating, Com. purslane” value ([5]; PREEMERGENCE, Rate 125 g/ha) was 100. For the same compound, the “Plant response rating, Johnsongrass” value ([6]; Rate 35 g/ha) was 40, the “Plant response rating, Johnsongrass” value ([6]; Rate 70 g/ha) was 50 and the “Plant response rating, Johnsongrass” value ([6]; Rate 140 g/ha) was 80. For the same compound, the “Plant response rating, B. signalgrass” value ([7]; Rate 62 g/ha, Postemergence) was 4, the “B. signalgrass plant response rating” value ([7]; Rate 62 g/ha, Preemergence) was 8 and the “B. signalgrass plant response rating” value ([7]; Rate 125 g/ha, Postemergence) was 9. The “Plant response rating, B. signalgrass” value ([7]; Rate 125 g/ha, Preemergence) was 9, the “Plant response rating, B. signalgrass” value ([7]; Rate 250 g/ha, Postemergence) was 9 and the “Plant response rating, B. signalgrass” value ([7]; Rate 250 g/ha, Preemergence) was 10. For the same compound, the “Plant response rating, B. signalgrass” value ([7]; Rate 500 g/ha, Postemergence) was 9, the “Plant response rating, B. signalgrass” value ([7]; Rate 500 g/ha, Preemergence) was 10 and the “Plant response rating, Redroot pigweed” value ([8]; Rate 62 g/ha, Postemergence) was 9. For the same compound, the “Redroot pigweed plant response rating” value ([8]; Rate 62 g/ha, Preemergence) was 10, the “Redroot pigweed plant response rating” value ([8]; Rate 125 g/ha, Postemergence) was 10 and the “Plant response rating, Redroot pigweed” value ([8]; Rate 125 g/ha, Preemergence) was 10. The “Plant response rating, Redroot pigweed” value ([8]; Rate 250 g/ha, Postemergence) was 10, the “Plant response rating, Redroot pigweed” value ([8]; Rate 250 g/ha, Preemergence) was 10 and the “Plant response rating, Redroot pigweed” value ([8]; Rate 500 g/ha, Postemergence) was 10. For the same compound, the “Plant response rating, Redroot pigweed” value ([8]; Rate 500 g/ha, Preemergence) was 10, the “Plant response rating, Blackgrass” value ([9]; Rate 62 g/ha, Postemergence) was 5 and the “Blackgrass plant response rating” value ([9]; Rate 62 g/ha, Preemergence) was 5. The “Blackgrass plant response rating” value ([9]; Rate 125 g/ha, Postemergence) was 9, the “Plant response rating, Blackgrass” value ([9]; Rate 125 g/ha, Preemergence) was 8 and the “Plant response rating, Blackgrass” value ([9]; Rate 250 g/ha, Postemergence) was 9. For the same compound, the “Plant response rating, Blackgrass” value ([9]; Rate 250 g/ha, Preemergence) was 10, the “Plant response rating, Blackgrass” value ([9]; Rate 500 g/ha, Postemergence) was 9 and the “Plant response rating, Blackgrass” value ([9]; Rate 500 g/ha, Preemergence) was 10. For the same compound, the “Plant response rating, Cocklebur” value ([10]; Rate 62 g/ha, Postemergence) was 8, the “Cocklebur plant response rating” value ([10]; Rate 62 g/ha, Preemergence) was 1 and the “Cocklebur plant response rating” value ([10]; Rate 125 g/ha, Postemergence) was 8. The “Plant response rating, Cocklebur” value ([10]; Rate 250 g/ha, Postemergence) was 9, the “Plant response rating, Cocklebur” value ([10]; Rate 250 g/ha, Preemergence) was 7 and the “Plant response rating, Cocklebur” value ([10]; Rate 500 g/ha, Postemergence) was 9. The “Plant response rating, Cocklebur” value ([10]; Rate 500 g/ha, Preemergence) was 10, the “Plant response rating, Morningglory” value ([11]; Rate 62 g/ha, Postemergence) was 10 and the “Morningglory plant response rating” value ([11]; Rate 62 g/ha, Preemergence) was 9. The “Morningglory plant response rating” value ([11]; Rate 125 g/ha, Postemergence) was 10, the “Plant response rating, Morningglory” value ([11]; Rate 125 g/ha, Preemergence) was 10 and the “Plant response rating, Morningglory” value ([11]; Rate 250 g/ha, Postemergence) was 10. The “Plant response rating, Morningglory” value ([11]; Rate 250 g/ha, Preemergence) was 10, the “Plant response rating, Morningglory” value ([11]; Rate 500 g/ha, Postemergence) was 10 and the “Plant response rating, Morningglory” value ([11]; Rate 500 g/ha, Preemergence) was 10. For the same compound, the “Plant response rating, Arrowleaf sida” value ([12]; Rate 35 g/ha) was 100, the “Plant response rating, Arrowleaf sida” value ([12]; Rate 70 g/ha) was 100 and the “Plant response rating, Arrowleaf sida” value ([12]; Rate 140 g/ha) was 100.
